Data as given in patent US20210062160A1, “THERAPEUTIC AND IMMUNOMODULATORY BACTERIOPHAGE FORMULATIONS AND METHODS FOR MAKING AND USING THEM” (priority 2017, published 2021).

Tests used:
MDCK cells [1] = assay: Inhibition of T4 phage transcytosis across MDCK monolayers by chemical inhibitors; assay type: cell-based, canine; details: for Inhibitor transcytosis Median ± s.d.: T4 phages across MDCK pretreated 18 hrs: Brefeldin A 5 μgmL^−1, Wortmannin 100 nM, Bafilomycin 0.5 μM, Chloroquine 100 μM, W-7 100 μM, solvent 7.9 ± 3 × 10^4; for effect of inhibitor on phage transcytosis: T4 phages across inhibitor-treated MDCK cells vs solvent control
Procedure: All cells were seeded at a density of 0.5-1×10^6 cells per well and allowed to grow to confluency (3-5 days). For apical-to-basal transcytosis the apical wells were incubated in Hanks Buffered Salt Solution (HBSS) at pH 6.0 and basal cells in HBSS at pH 7.4 for two hours to mimic pH-dependent uptake (2). For basal-to-apical transcytosis the buffers were switched. Bacteriophages were applied with the HBBS pH 6.0 buffer, incubated with cells for two hours and phage from both apical and basal cell layers quantified by plating with bacterial host.
Permeation of phages throughout the eukaryotic cell. The mechanism of phage access to Eukaryotic cells remains ambiguous (22, 24, 29). […] Inhibition of phage transcytosis was reported as the percentage of phages transcytosed across inhibitor-treated cells, compared to cells treated with a solvent control (FIG. 3A and Table S3).
Before this invention, the mechanism of phage transcytosis across eukaryotic cells remained ambiguous, see e.g., Duerkop et al., 2013, Resident viruses and their interactions with the immune system, Nat Immunol 14:654-9; Merril, et al., 1996, Long-circulating bacteriophage as antibacterial agents, Proc Natl Acad Sci 93:3188-3192; Aronow, et al., 1964, Electron microscopy of in vitro endocytosis of T2 phage by cells from rabbit perioneal exudate, J Exp Med 120. […] Inhibition of phage transcytosis was reported as the percentage of phages transcytosed across inhibitor-treated cells compared to cells treated with a solvent control (FIG. 13).

MDCK cells [2] = assay: Fluorescence-positive MDCK cells after treatment with labeled T4 phages; assay type: cell-based, canine; details: n=1008, mean
From the text: T4 phage were fluorescently labeled and visualized within MDCK cells (FIG. 4A-C).

Compound | Inhibitor transcytosis Median ± s.d. (MDCK cells [1]) | effect of inhibitor on phage transcytosis (MDCK cells [1]) | proportion of fluorescence-positive cells treated with BFA and labeled T4 phages (MDCK cells [2]) [%] | phages transcytosed compared to a solvent control (MDCK cells [1]; T4 phages across inhibitor-treated MDCK cells) [%]
CO/C1=C\C(C)=C\[C@@H](C)[C@@H](O)[C@@H](C)C/C(C)=C/C=C/[C@H](OC)[C@@H]([C@@H](C)[C@@H](O)[C@H](C)[C@@]2(O)C[C@@H](O)[C@H](C)[C@@H](C(C)C)O2)OC1=O [Bafilomycin] | 1 ± .19 × 10^5 | no significant treatment effects |  | 
C[C@H]1CCC/C=C/[C@@H]2C[C@H](O)C[C@H]2[C@H](O)/C=C/C(=O)O1 [Brefeldin A] | 2.3 ± 2.2 × 10^4 | significant but incomplete inhibition of transcytosis | 9.98 | 38.5
CCN(CC)CCCC(C)Nc1ccnc2cc(Cl)ccc12 (centres unmarked) [Chloroquine] | 5.3 ± 2.7 × 10^4 | no significant treatment effects |  | 
NCCCCCCNS(=O)(=O)c1cccc2c(Cl)cccc12 [W-7] | 8.2 ± 1.1 × 10^4 | no significant treatment effects |  | 
COC[C@H]1OC(=O)c2coc3c2[C@@]1(C)C1=C(C3=O)[C@@H]2CCC(=O)[C@@]2(C)C[C@H]1OC(C)=O [Wortmannin] | 8.1 ± 2.9 × 10^4 |  |  | 
